# Laboratory results reported in US20200345010A1, “FUNGICIDAL OXADIAZOLES” (FMC Corporation, priority 2019, published 2020).
# Marks after values point to notes of the source that are not given here.
# Columns and labels:
# [1] = test system: Phakopsora pachyrhizi; experiment: Test A: Asian soybean rust control on soybean seedlings; type: in vivo; conditions: soybean seedlings sprayed the day before inoculation, 100 = 100% disease control, 0 = none
# Source text: (§1) General protocol for preparing test suspensions for Tests A-C: the test compounds were first dissolved in acetone in an amount equal to 3% of the final volume and then suspended at the desired concentration (in ppm) in acetone and purified water (50/50 mix by volume) containing 250 ppm of the surfactant PEG400 (polyhydric alcohol esters). The resulting test suspensions were then used in Tests A-C.
# (§2) The test solution was sprayed to the point of run-off on soybean seedlings. The following day the seedlings were inoculated with a spore suspension of Phakopsora pachyrhizi (the causal agent of Asian soybean rust) and incubated in a saturated atmosphere at 22° C. for 24 h, and then moved to a growth chamber at 22° C. for 8 days, after which time visual disease ratings were made.
# (§3) A rating of 100 indicates 100% disease control and a rating of 0 indicates no disease control (relative to the controls). A dash (-) indicates the compound was not tested.
# [2] = test system: Puccinia recondita f. sp. tritici; experiment: Test C: wheat leaf rust control on wheat seedlings; type: in vivo; conditions: wheat seedlings sprayed the day before inoculation, 100 = 100% disease control, 0 = none
# Source text: as §1
# as §2, with “wheat” for “soybean”, “Puccinia recondita f. sp. tritici” for “Phakopsora pachyrhizi”, “wheat leaf” for “Asian soybean”, “20°” for “22°”, “7” for “8”, “time” for “time visual”
# as §3
# [3] = test system: Zymoseptoria tritici; experiment: Test B: wheat leaf blotch control on wheat seedlings; type: in vivo; conditions: 250 ppm test suspension (asterisk); wheat seedlings sprayed the day before inoculation; 100 = 100% disease control, 0 = none
# Source text: as §1
# The test solution was sprayed to the point of run-off on wheat seedlings. The following day the seedlings were inoculated with a spore suspension of Zymoseptoria tritici (the causal agent of wheat leaf blotch) and incubated in a saturated atmosphere at 24° C. for 48 h, and then moved to a growth chamber at 20° C. for 17 days, after which time disease ratings were made.
# as §3
# [4] = 250 ppm test suspension (asterisk)
SMILES,Test A disease control rating ([1]; 10 ppm test suspension) [%],Test C disease control rating ([2]; 10 ppm test suspension) [%],Test B disease control rating [3],also measured
"CS(=O)(=NCc1ccc(-c2noc(C(F)(F)F)n2)cc1)c1ccccc1 (single isomer, unassigned) [Compound 8]",100,68,–,–
"CS(=O)(=NCc1ccc(-c2noc(C(F)(F)F)n2)cc1)c1ccccc1 (single isomer, unassigned) [Compound 23]",–,–,–,Test A disease control rating ([1]; 50 ppm test suspension): 100%; Test C disease control rating ([2]; 50 ppm test suspension): 85%
CS(C)(=O)=Nc1ccc(-c2noc(C(F)(F)F)n2)cc1 [Compound 1],73,0,–,–
"CS(=O)(Cc1ccccc1)=NCc1ccc(-c2noc(C(F)(F)F)n2)cc1 (centres unmarked) [Compound 2, N-[methyloxido(phenylmethyl)-λ^4-sulfanylidene]-4-[5-(trifluoromethyl)-1,2,4-oxadiazol-3-yl]benzenemethanamine]",–,–,93* %,Test A disease control rating ([1]; 50 ppm test suspension): 100%; Test C disease control rating ([2]; 50 ppm test suspension): 100%
CS(=O)(=NCc1ccc(-c2noc(C(F)(F)F)n2)cc1)c1ccc(Cl)cc1 (centres unmarked) [Compound 3],94,0,–,–
CS(=O)(=NCc1ccc(-c2noc(C(F)(F)F)n2)cc1)c1ccccn1 (centres unmarked) [Compound 4],98,74,–,–
CS(=O)(=Nc1ccc(-c2noc(C(F)(F)F)n2)cc1)c1ccccn1 (centres unmarked) [Compound 6],99,74,–,–
CS(=O)(=NCc1ccc(-c2noc(C(F)(F)F)n2)cc1)c1ccc(Br)cc1 (centres unmarked) [Compound 9],92,0,–,–
CS(=O)(=NCc1ccc(-c2noc(C(F)(F)F)n2)cc1)c1ccc(C#N)cc1 (centres unmarked) [Compound 10],100,55,–,–
CS(=O)(=NCc1ccc(-c2noc(C(F)(F)F)n2)cc1)c1ccc(C(F)(F)F)cc1 (centres unmarked) [Compound 11],99,0,–,–
O=S(=NCc1ccc(-c2noc(C(F)(F)F)n2)cc1)(c1ccccc1)C1CC1 (centres unmarked) [Compound 12],97,–,53* %,"Test C disease control rating [2, 4]: 99* %"
CS(=O)(=Nc1ccc(-c2noc(C(F)(F)F)n2)cc1)c1cccs1 (centres unmarked) [Compound 13],100,45,91* %,–
O=S1(=NCc2ccc(-c3noc(C(F)(F)F)n3)cc2)CCOCC1 [Compound 14],99,91,–,–
O=S(CCl)(=NCc1ccc(-c2noc(C(F)(F)F)n2)cc1)c1ccccc1 (centres unmarked) [Compound 15],97,–,28* %,"Test C disease control rating [2, 4]: 99* %"
O=S1(=Nc2ccc(-c3noc(C(F)(F)F)n3)cc2)CCCC1 [Compound 16],77,0,89* %,–
COC(=O)CCS(=O)(=NCc1ccc(-c2noc(C(F)(F)F)n2)cc1)c1ccccc1 (centres unmarked) [Compound 18],84,0,–,–
O=S(CCC(F)(F)F)(=NCc1ccc(-c2noc(C(F)(F)F)n2)cc1)c1ccccc1 (centres unmarked) [Compound 19],85,0,–,–
CS(=O)(=Nc1ccc(-c2noc(C(F)(F)F)n2)cc1)c1ccncc1 (centres unmarked) [Compound 20],98,89,–,–
CS(=O)(=NCc1ccc(-c2noc(C(F)(F)F)n2)cc1)c1ccccc1 (centres unmarked) [Compound 21],–,–,70* %,"Test A disease control rating ([1]; 50 ppm test suspension): 100%; Test C disease control rating [2, 4]: 100* %"
CS(=O)(Cc1ccccc1)=Nc1ccc(-c2noc(C(F)(F)F)n2)cc1 (centres unmarked) [Compound 22],54,89,–,–
Cl.O=S1(=NCc2ccc(-c3noc(C(F)(F)F)n3)cc2)CCNCC1 [Compound 24],99,–,18* %,"Test C disease control rating [2, 4]: 99* %; melting point: 219 to 223 °C"
"CS(=O)(=Nc1ccc(-c2noc(C(F)(F)F)n2)cc1)c1ccsc1 (centres unmarked) [Compound 25, N-(methyloxido-3-thienyl-λ^4-sulfanylidene)-4-[5-(trifluoromethyl)-1,2,4-oxadiazol-3-yl]benzenamine]",100,86,–,–

SMILES,Test A disease control rating ([1]; 10 ppm test suspension) [%],Test C disease control rating ([2]; 10 ppm test suspension) [%],Test B disease control rating [3],also measured
CS(=O)(=NCc1ccc(-c2noc(C(F)(F)F)n2)cc1)c1cccs1 (centres unmarked) [Compound 27],100,–,98* %,"Test C disease control rating [2, 4]: 100* %"
CS(=O)(=NCc1ccc(-c2noc(C(F)(F)F)n2)cc1)c1ccsc1 (centres unmarked) [Compound 28],100,–,79* %,"Test C disease control rating [2, 4]: 100* %"
CS(=O)(=NCc1ccc(-c2noc(C(F)(F)F)n2)cc1)c1ccc2ccccc2c1 (centres unmarked) [Compound 29],97,–,3* %,"Test C disease control rating [2, 4]: 99* %"
CS(=O)(=Nc1ccc(-c2noc(C(F)(F)F)n2)cc1)c1ccc2ccccc2c1 (centres unmarked) [Compound 30],0,74,–,–
CCCS(=O)(=NCc1ccc(-c2noc(C(F)(F)F)n2)cc1)c1ccccc1 (centres unmarked) [Compound 32],99,0,–,–
"CS(C)(=O)=NCCc1ccc(-c2noc(C(F)(F)F)n2)cc1 [Compound 33, N-(dimethyloxido-λ^4-sulfanylidene)-4-[5-(trifluoromethyl)-1,2,4-oxadiazol-3-yl]benzeneethanamine]",99,68,–,–
CCS(=O)(CC)=NCc1ccc(-c2noc(C(F)(F)F)n2)cc1 [Compound 34],100,41,–,–
CCCS(=O)(Cc1ccccc1)=Nc1ccc(-c2noc(C(F)(F)F)n2)cc1 (centres unmarked) [Compound 35],0,0,–,–
CCCS(=O)(Cc1ccccc1)=NCc1ccc(-c2noc(C(F)(F)F)n2)cc1 (centres unmarked) [Compound 36],100,0,–,–
CCCS(=O)(=NCc1ccc(-c2noc(C(F)(F)F)n2)cc1)c1c(F)c(F)c(F)c(F)c1F (centres unmarked) [Compound 37],–,–,15* %,Test A disease control rating ([1]; 50 ppm test suspension): 100%; Test C disease control rating ([2]; 50 ppm test suspension): 89%
CS(=O)(=Nc1ccc(-c2noc(C(F)(F)F)n2)cc1)c1ccccc1 (centres unmarked) [Compound 39],99,100,65* %,–
Cc1cc(C)c(S(C)(=O)=NCc2ccc(-c3noc(C(F)(F)F)n3)cc2)c(C)c1 (centres unmarked) [Compound 40],91,0,36* %,–
O=S1(=NCc2ccc(-c3noc(C(F)(F)F)n3)cc2)CCCCC1 [Compound 43],–,–,–,Test A disease control rating ([1]; 50 ppm test suspension): 100%; Test C disease control rating ([2]; 50 ppm test suspension): 99%
CS(=O)(=NCc1ccc(-c2noc(C(F)(F)F)n2)cc1)c1ccccc1C#N (centres unmarked) [Compound 44],98,100,0* %,–
CS(=O)(=NCc1ccc(-c2noc(C(F)(F)F)n2)cc1)c1cccc(C#N)c1 (centres unmarked) [Compound 45],100,100,0* %,–
CCCS(C)(=O)=NCc1ccc(-c2noc(C(F)(F)F)n2)cc1 (centres unmarked) [Compound 46],100,100,1* %,–
COc1ccc(S(C)(=O)=NCc2ccc(-c3noc(C(F)(F)F)n3)cc2)cc1 (centres unmarked) [Compound 47],99,32,–,–
"COCCS(=O)(=NCc1ccc(-c2noc(C(F)(F)F)n2)cc1)c1ccccc1 (centres unmarked) [Compound 48, N-[(2-methoxyethyl)oxidophenyl-λ^4-sulfanylidene]-4-[5-(trifluoromethyl)-1,2,4-oxadiazol-3-yl]benzenemethanamine]",98,45,–,–
COC(=O)c1ccc(S(C)(=O)=NCc2ccc(-c3noc(C(F)(F)F)n3)cc2)cc1 (centres unmarked) [Compound 49],0,0,–,–
CS(C)(=O)=NCc1ccc(-c2noc(C(F)(F)F)n2)cc1 [Compound 50],99,–,–,Test C disease control rating ([2]; 50 ppm test suspension): 100** %
CC(N=S(C)(C)=O)c1ccc(-c2noc(C(F)(F)F)n2)cc1 (centres unmarked) [Compound 52],79,–,25* %,Test C disease control rating ([2]; 50 ppm test suspension): 98** %
